From the NIST ThermoML archive (doi:10.1016/j.jct.2017.07.011)

Experiment: xn = mol fraction of the nth substance listed
Details: 100 kPa, Liquid, Vibrating tube method

CCC(O)CC [3-pentanol] + O
mass density [kg/m3]
Details | x1 = 0.00117 | x1 = 0.00216 | x1 = 0.00361 | x1 = 0.00517 | x1 = 0.00616 | x1 = 0.00773 | x1 = 0.00866 | x1 = 1
273.65 K | 999.121 | 998.483 | 997.636 | 996.791 | 996.228 | 995.539 | 995.114 | 835.7
274.15 K | 999.145 | 998.504 | 997.655 | 996.809 | 996.243 | 995.55 | 995.121 | 835.3
274.65 K | 999.166 | 998.525 | 997.681 | 996.827 | 996.257 | 995.562 | 995.131 | 834.9
275.15 K | 999.182 | 998.545 | 997.694 | 996.837 | 996.27 | 995.568 | 995.137 | 834.5
275.65 K | 999.2 | 998.559 | 997.704 | 996.842 | 996.271 | 995.572 | 995.134 | 834.1
276.15 K | 999.21 | 998.568 | 997.714 | 996.849 | 996.277 | 995.571 | 995.134 | 833.7
276.65 K | 999.216 | 998.574 | 997.718 | 996.852 | 996.271 | 995.565 | 995.128 | 833.3
277.15 K | 999.214 | 998.574 | 997.712 | 996.843 | 996.263 | 995.555 | 995.116 | 832.9
277.65 K | 999.21 | 998.562 | 997.704 | 996.832 | 996.251 | 995.537 | 995.092 | 832.5
278.15 K | 999.206 | 998.556 | 997.698 | 996.822 | 996.238 | 995.523 | 995.08 | 832.1
278.65 K | 999.194 | 998.549 | 997.686 | 996.805 | 996.219 | 995.503 | 995.05 | 831.7
279.15 K | 999.182 | 998.533 | 997.668 | 996.789 | 996.197 | 995.475 | 995.023 | 831.3
279.65 K | 999.159 | 998.5 | 997.635 | 996.752 | 996.159 | 995.434 | 994.98 | 830.9
280.15 K | 999.14 | 998.48 | 997.609 | 996.729 | 996.134 | 995.406 | 994.948 | 830.5
280.65 K | 999.119 | 998.457 | 997.582 | 996.698 | 996.103 | 995.368 | 994.912 | 830.1
281.15 K | 999.084 | 998.424 | 997.551 | 996.663 | 996.061 | 995.327 | 994.867 | 829.7
281.65 K | 999.053 | 998.388 | 997.515 | 996.619 | 996.024 | 995.286 | 994.819 | 829.3
282.15 K | 999.017 | 998.353 | 997.476 | 996.581 | 995.981 | 995.24 | 994.77 | 828.9

CCC(C)(C)O [2-methylbutan-2-ol] + O
mass density [kg/m3]
Details | x1 = 0.00122 | x1 = 0.00255 | x1 = 0.00412 | x1 = 0.00507 | x1 = 0.00607 | x1 = 0.0079 | x1 = 0.00994 | x1 = 0.01252 | x1 = 0.01488 | x1 = 1
273.65 K | 999.033 | 998.16 | 997.224 | 996.687 | 996.151 | 995.216 | 994.277 | 993.23 | 992.364 | 826.7
274.15 K | 999.058 | 998.181 | 997.247 | 996.703 | 996.17 | 995.235 | 994.284 | 993.232 | 992.356 | 826.3
274.65 K | 999.08 | 998.206 | 997.266 | 996.721 | 996.184 | 995.25 | 994.296 | 993.233 | 992.353 | 825.8
275.15 K | 999.099 | 998.222 | 997.286 | 996.74 | 996.2 | 995.262 | 994.3 | 993.231 | 992.341 | 825.4
275.65 K | 999.114 | 998.237 | 997.295 | 996.749 | 996.207 | 995.267 | 994.301 | 993.227 | 992.328 | 824.9
276.15 K | 999.13 | 998.247 | 997.305 | 996.76 | 996.213 | 995.266 | 994.297 | 993.215 | 992.313 | 824.5
276.65 K | 999.132 | 998.253 | 997.309 | 996.765 | 996.216 | 995.269 | 994.293 | 993.203 | 992.291 | 824
277.15 K | 999.134 | 998.251 | 997.307 | 996.759 | 996.215 | 995.258 | 994.279 | 993.181 | 992.265 | 823.5
277.65 K | 999.129 | 998.246 | 997.299 | 996.748 | 996.2 | 995.243 | 994.261 | 993.157 | 992.23 | 823.1
278.15 K | 999.126 | 998.235 | 997.295 | 996.741 | 996.193 | 995.233 | 994.246 | 993.13 | 992.197 | 822.6
278.65 K | 999.113 | 998.23 | 997.279 | 996.728 | 996.177 | 995.217 | 994.22 | 993.102 | 992.159 | 822.2
279.15 K | 999.102 | 998.216 | 997.265 | 996.713 | 996.158 | 995.193 | 994.199 | 993.072 | 992.123 | 821.7
279.65 K | 999.075 | 998.186 | 997.235 | 996.681 | 996.124 | 995.158 | 994.162 | 993.023 | 992.067 | 821.3
280.15 K | 999.056 | 998.17 | 997.213 | 996.659 | 996.101 | 995.132 | 994.13 | 992.984 | 992.025 | 820.8
280.65 K | 999.032 | 998.146 | 997.189 | 996.631 | 996.074 | 995.095 | 994.093 | 992.943 | 991.972 | 820.3
281.15 K | 999.006 | 998.115 | 997.154 | 996.599 | 996.039 | 995.06 | 994.049 | 992.894 | 991.918 | 819.9
281.65 K | 998.97 | 998.079 | 997.123 | 996.561 | 996 | 995.021 | 994.007 | 992.846 | 991.86 | 819.4
282.15 K | 998.939 | 998.044 | 997.086 | 996.522 | 995.962 | 994.976 | 993.958 | 992.79 | 991.8 | 819

CCCC(C)O (stereo not given) [pentan-2-ol] + O
mass density [kg/m3]
Details | x1 = 0.00105 | x1 = 0.0021 | x1 = 0.00413 | x1 = 0.00599 | x1 = 0.00677 | x1 = 0.00857 | x1 = 1
273.65 K | 999.095 | 998.354 | 997.02 | 995.922 | 995.484 | 994.604 | 824
274.15 K | 999.119 | 998.377 | 997.038 | 995.939 | 995.499 | 994.61 | 823.6
274.65 K | 999.148 | 998.4 | 997.057 | 995.957 | 995.51 | 994.622 | 823.2
275.15 K | 999.16 | 998.416 | 997.073 | 995.965 | 995.523 | 994.625 | 822.8
275.65 K | 999.177 | 998.43 | 997.08 | 995.972 | 995.524 | 994.627 | 822.5
276.15 K | 999.187 | 998.44 | 997.09 | 995.972 | 995.527 | 994.622 | 822.1
276.65 K | 999.193 | 998.445 | 997.092 | 995.974 | 995.524 | 994.619 | 821.7
277.15 K | 999.185 | 998.444 | 997.082 | 995.964 | 995.512 | 994.604 | 821.3
277.65 K | 999.19 | 998.439 | 997.076 | 995.952 | 995.498 | 994.583 | 820.9
278.15 K | 999.187 | 998.426 | 997.066 | 995.938 | 995.484 | 994.566 | 820.6
278.65 K | 999.177 | 998.416 | 997.053 | 995.923 | 995.466 | 994.542 | 820.2
279.15 K | 999.163 | 998.401 | 997.037 | 995.898 | 995.439 | 994.519 | 819.8
279.65 K | 999.133 | 998.376 | 997.002 | 995.867 | 995.403 | 994.471 | 819.4
280.15 K | 999.115 | 998.36 | 996.978 | 995.84 | 995.375 | 994.439 | 819.1
280.65 K | 999.09 | 998.332 | 996.951 | 995.806 | 995.342 | 994.408 | 818.7
281.15 K | 999.058 | 998.301 | 996.915 | 995.769 | 995.301 | 994.365 | 818.3
281.65 K | 999.025 | 998.267 | 996.878 | 995.731 | 995.261 | 994.318 | 817.9
282.15 K | 998.992 | 998.234 | 996.841 | 995.688 | 995.214 | 994.273 | 817.5
